Source: publication PMC10044245, “Comparative Evaluation of Existing and Rationally Designed Novel Antimicrobial Peptides for Treatment of Skin and Soft Tissue Infections” (Antibiotics, 2023)
Converted amounts (≈) assume the structure as drawn. Where a SMILES comes first, the peptide text is derived from it.

Tests used:
E. coli = assay: microbe, parasite or virus in culture; format: cell-based, Escherichia coli; settings: for MIC: Escherichia coli, 96-well plate, serial dilutions, 32 °C, 13–18 h, 200 rpm, OD 550 nm, lowest concentration preventing growth
Experimental: (§1) Quantification of the antimicrobial resistance against various AMPs was carried out by measuring the bacterial growth in the presence of peptides at serial dilutes in 96 well plates in a microplate (96-well plate) reader Infinite® M200 PRO Multimode Microplate Reader (Tecan, Maennedorf, Switzerland) according to our recent reports. All bacterial strains were incubated at 32 °C for 13–18 h at 200 rpm. Optical density measurements (λ = 550 nm) were taken automatically at 10 min intervals. Antimicrobial resistance activity was quantified as the minimum inhibitory concentration (MIC)—the lowest concentration of a peptide which prevents growth of bacterial cells.

P. aeruginosa = assay: microbe, parasite or virus in culture; format: cell-based, Pseudomonas aeruginosa; settings: for MIC: Pseudomonas aeruginosa, 96-well plate, serial dilutions, 32 °C, 13–18 h, 200 rpm, OD 550 nm
Experimental: as §1

K. pneumonia = assay: microbe, parasite or virus in culture; format: cell-based, Klebsiella pneumoniae; settings: for MIC: Klebsiella pneumoniae, 96-well plate, serial dilutions, 32 °C, 13–18 h, 200 rpm, OD 550 nm
Experimental: as §1

E. faecium = assay: microbe, parasite or virus in culture; format: cell-based, Enterococcus faecium
Experimental: as §1

S. aureus = assay: microbe, parasite or virus in culture; format: cell-based, Staphylococcus aureus; settings: for MIC: Staphylococcus aureus, 96-well plate, serial dilutions, 32 °C, 13–18 h, 200 rpm, OD 550 nm
Experimental: as §1

C. acnes = assay: microbe, parasite or virus in culture; format: cell-based, Cutibacterium acnes; settings: for MIC: Cutibacterium acnes, 96-well plate, serial dilutions, 32 °C, 13–18 h, 200 rpm, OD 550 nm
Experimental: as §1

[1] = tested on: BALB/c 3T3 murine fibroblast cell line; assay: Cytotoxicity, neutral red uptake assay; format: cell-based; settings: for IC50, viability of Balb/c 3T3 cells: 48 h
From the text: The BALB/c 3T3 murine fibroblast cell line was obtained from ATCC (American Type Culture Collection, Manassas, VA, USA). Primary human dermal fibroblasts were isolated by enzymatic digestion from skin biopsies in the Laboratory of Bioanalytical and Biodosimetry Methods, University of Latvia, in accordance with the approval of the Committee of Research Ethics of the Institute of Cardiology and Regenerative Medicine, University of Latvia. Cells were propagated in DMEM medium (Sigma, Irvine, UK), supplemented with 1% penicillin (100 U/mL)–streptomycin (100 μg/mL), and 10% calf serum (Sigma, St. Louis, MO, USA) for Balb/c 3T3 cell line and fetal bovine serum (Sigma, St. Louis, MO, USA) for primary dermal fibroblasts. All cultivations were performed in a humidified 5% CO2 atmosphere at 37 °C.
The cytotoxicity of the peptides was tested in the BALB/c3T3 cell line and primary dermal fibroblasts by the neutral red (NR) uptake assay. Cells were seeded in 96-well plates at a density of 5 × 10^3 cells per well. After 24 h of incubation, peptides in a concentration range of 3.9 to 500 μg/mL were added. Dilutions were made in a cell cultivation medium. Cultivation in the presence of extracts was performed for 48 h. Afterwards, plates were washed with phosphate-buffered saline (PBS) (Sigma, Irvine, UK), and a 25 µg/mL NR solution (Sigma, Irvine, UK) diluted in 5%-fetal-calf-serum-containing-media was added. After 3 h, incubation in a humidified 5% CO2 atmosphere at 37 °C, the plate was washed with PBS, and the NR taken up by viable cells was extracted using desorbing fixative (50% ethanol/1% acetic acid/49% water). Absorbance at 540 nm was measured using a microplate reader Tecan Infinite® 200 PRO (Tecan Group Ltd., Mannedorf, Switzerland). Cytotoxicity was expressed as a concentration-dependent reduction in the uptake of NR, compared to the untreated controls and calculated using the following equation: Cell viability (%)=Abs540nm(treatment)−Abs540nm(background)/Abs540nm(untreated control)−Abs540nm(background)×100%

MIC E. coli (E. coli) | MIC P. aeruginosa (P. aeruginosa) | MIC K. pneumonia (K. pneumonia) | MIC E. faecium (E. faecium) | MIC S. aureus (S. aureus) | MIC C. acnes (C. acnes) | MIC (K. pneumonia) | MIC (S. aureus) | MIC (E. coli) | MIC (C. acnes) | MIC (P. aeruginosa) | MIC (E. faecium; Enterococcus faecium, 96-well plate, serial dilutions, 32 °C, 13–18 h, 200 rpm, OD 550 nm) | Compound | Therapeutic Index E. coli (E. coli) | Therapeutic Index P. aeruginosa (P. aeruginosa) | Therapeutic Index K. pneumonia (K. pneumonia) | Therapeutic Index E. faecium (E. faecium) | Therapeutic Index S. aureus (S. aureus) | Therapeutic Index C. acnes (C. acnes) | IC50, viability of Balb/c 3T3 cells [1] | reduction of cell viability ([1]; Balb/c 3T3, at 500 μg/mL)
31.0 µg/mL (≈ 13.4 µM) | 16.0 µg/mL (≈ 6.89 µM) | 16.0 µg/mL (≈ 6.89 µM) | 4.0 µg/mL (≈ 1.72 µM) | 2.0 µg/mL (≈ 0.862 µM) | 16.0 µg/mL (≈ 6.89 µM) | – | – | – | – | – | – | CC[C@H](C)[C@H](NC(=O)[C@H](CCCNC(=N)N)NC(=O)[C@H](CCCCN)NC(=O)[C@H](C)NC(=O)[C@@H](NC(=O)[C@@H](N)CCCCN)[C@@H](C)CC)C(=O)N[C@@H](Cc1c[nH]c2ccccc12)C(=O)N[C@@H](CCCCN)C(=O)N[C@@H](CCCNC(=N)N)C(=O)N[C@H](C(=O)N[C@@H](Cc1c[nH]c2ccccc12)C(=O)N[C@@H](CCCCN)C(=O)N[C@H](C(=O)N[C@@H](CC(C)C)C(=O)N[C@@H](CCCNC(=N)N)C(=O)N[C@@H](CCCNC(=N)N)C(=O)N[C@@H](CCCNC(=N)N)C(=O)O)[C@@H](C)CC)[C@@H](C)CC [PA13, reference compound] (H-KIAKRIWKRIWKILRRR-OH) | 8.5 | 16.4 | 16.4 | 65.5 | 131.0 | 16.4 | 262 µg/mL | –
8.0 µg/mL (≈ 2.99 µM) | 4.0 µg/mL (≈ 1.5 µM) | 31.0 µg/mL (≈ 11.6 µM) | 16.0 µg/mL (≈ 5.99 µM) | 8.0 µg/mL (≈ 2.99 µM) | 0.5 µg/mL (≈ 0.187 µM) | – | – | – | – | – | – | CC[C@H](C)[C@H](N)C(=O)N[C@@H](C)C(=O)N[C@@H](CCCCN)C(=O)N[C@@H](CCCCN)C(=O)N[C@@H](Cc1ccccc1)C(=O)N[C@@H](Cc1c[nH]c2ccccc12)C(=O)N[C@@H](CCCCN)C(=O)N[C@@H](CCCCN)C(=O)N[C@@H](Cc1ccccc1)C(=O)N[C@@H](Cc1c[nH]c2ccccc12)C(=O)N[C@@H](CCCCN)C(=O)N[C@@H](Cc1ccccc1)C(=O)N[C@@H](Cc1c[nH]c2ccccc12)C(=O)N[C@@H](CCCCN)C(=O)N[C@H](C(=O)N[C@@H](Cc1ccccc1)C(=O)N[C@@H](CCCCN)C(=O)N[C@@H](CCCCN)C(=O)N[C@H](C(=O)N[C@@H](C)C(=O)O)[C@@H](C)CC)[C@@H](C)CC [Peptide R12] (H-IAKKFWKKFWKFWKIFKKIA-OH) | 2.0 | 4.0 | 0.5 | 1.0 | 2.0 | 32.0 | 16.18 µg/mL | –
– | 4.0 µg/mL (≈ 1.51 µM) | 8.0 µg/mL (≈ 3.03 µM) | 16.0 µg/mL (≈ 6.06 µM) | 4.0 µg/mL (≈ 1.51 µM) | 0.3 µg/mL (≈ 0.114 µM) | – | – | – | – | – | – | CC[C@H](C)[C@H](N)C(=O)N[C@@H](C)C(=O)N[C@@H](CCCCN)C(=O)N[C@@H](CCCCN)C(=O)N[C@@H](Cc1ccccc1)C(=O)N[C@@H](Cc1c[nH]c2ccccc12)C(=O)N1CCC[C@H]1C(=O)N[C@@H](CCCCN)C(=O)N[C@@H](Cc1ccccc1)C(=O)N[C@@H](Cc1c[nH]c2ccccc12)C(=O)N[C@@H](CCCCN)C(=O)N[C@@H](Cc1ccccc1)C(=O)N[C@@H](Cc1c[nH]c2ccccc12)C(=O)N[C@@H](CCCCN)C(=O)N[C@H](C(=O)N[C@@H](Cc1ccccc1)C(=O)N[C@@H](CCCCN)C(=O)N[C@@H](CCCCN)C(=O)N[C@H](C(=O)N[C@@H](C)C(=O)O)[C@@H](C)CC)[C@@H](C)CC [Peptide R13] (H-IAKKFWPKFWKFWKIFKKIA-OH) | 19.8 | 19.8 | 9.9 | 4.9 | 19.8 | 263.3 | 79.37 µg/mL | –

More lines, now with the values behind:

Compound | MIC E. coli (E. coli) | MIC P. aeruginosa (P. aeruginosa) | MIC K. pneumonia (K. pneumonia) | MIC E. faecium (E. faecium) | MIC S. aureus (S. aureus) | MIC C. acnes (C. acnes) | MIC (K. pneumonia) | MIC (S. aureus) | MIC (E. coli) | MIC (C. acnes) | MIC (P. aeruginosa) | MIC (E. faecium; Enterococcus faecium, 96-well plate, serial dilutions, 32 °C, 13–18 h, 200 rpm, OD 550 nm) | Therapeutic Index E. coli (E. coli) | Therapeutic Index P. aeruginosa (P. aeruginosa) | Therapeutic Index K. pneumonia (K. pneumonia) | Therapeutic Index E. faecium (E. faecium) | Therapeutic Index S. aureus (S. aureus) | Therapeutic Index C. acnes (C. acnes) | IC50, viability of Balb/c 3T3 cells [1] | reduction of cell viability ([1]; Balb/c 3T3, at 500 μg/mL)
CC(C)[C@H](NC(=O)[C@H](Cc1ccc(O)cc1)NC(=O)[C@H](Cc1c[nH]c2ccccc12)NC(=O)[C@H](CS)NC(=O)[C@H](Cc1ccccc1)NC(=O)CN)C(=O)N[C@@H](CS)C(=O)N[C@@H](C)C(=O)N[C@@H](CCCNC(=N)N)C(=O)N[C@@H](CCCNC(=N)N)C(=O)N[C@@H](CC(N)=O)C(=O)NCC(=O)N[C@@H](C)C(=O)N[C@@H](CCCNC(=N)N)C(=O)N[C@H](C(=O)N[C@@H](CS)C(=O)N[C@@H](Cc1ccc(O)cc1)C(=O)N[C@@H](CCCNC(=N)N)C(=O)N[C@@H](CCCNC(=N)N)C(=O)N[C@@H](CS)C(=O)N[C@@H](CC(N)=O)C(=O)O)C(C)C [AA139, reference compound] (H-GFCWYVCARRNGARVCYRRCN-OH; N-terminus and C-terminus assumed) | 4.0 µg/mL (≈ 1.57 µM) | 16.0 µg/mL (≈ 6.26 µM) | 8.0 µg/mL (≈ 3.13 µM) | 16.0 µg/mL (≈ 6.26 µM) | 8.0 µg/mL (≈ 3.13 µM) | 63.0 µg/mL (≈ 24.7 µM) | – | – | – | – | – | – | 157.0 | 39.3 | 78.5 | 39.3 | 78.5 | 10.0 | 627.5 µg/mL | 36%
CC[C@H]1OC(=O)[C@H](C)[C@@H](O[C@H]2C[C@@](C)(OC)[C@@H](O)[C@H](C)O2)[C@H](C)[C@@H](O[C@@H]2O[C@H](C)C[C@H](N(C)C)[C@H]2O)[C@](C)(O)C[C@@H](C)CN(C)[C@H](C)[C@@H](O)[C@]1(C)O [Azythromycin, Azithromycin dihydrate, reference compound] | – | – | – | – | – | – | 8 µg/mL | 0.5 µg/mL | – | – | – | – | – | – | – | – | – | – | – | –
O=C(OOC(=O)c1ccccc1)c1ccccc1 [Benzoyl peroxide, reference compound] | – | – | – | – | – | – | – | 1250 µg/mL (≈ 5160 µM) | 31 µg/mL (≈ 128 µM) | 80 µg/mL (≈ 330 µM) | – | – | – | – | – | – | – | – | – | –
[H]/N=C(\N/C(=N/[H])NCCCCCCNC(=N)NC(=N)Nc1ccc(Cl)cc1)Nc1ccc(Cl)cc1 [Chlorhexidine, chlorhexidine, reference compound] | – | – | – | – | – | – | – | 1 µg/mL (≈ 1.98 µM) | 16 µg/mL (≈ 31.7 µM) | 1 µg/mL (≈ 1.98 µM) | 1 µg/mL (≈ 1.98 µM) | – | – | – | – | – | – | – | – | –
CC[C@H]1OC(=O)[C@H](C)[C@@H](O[C@H]2C[C@@](C)(OC)[C@@H](O)[C@H](C)O2)[C@H](C)[C@@H](O[C@@H]2O[C@H](C)C[C@H](N(C)C)[C@H]2O)[C@](C)(OC)C[C@@H](C)C(=O)[C@H](C)[C@@H](O)[C@]1(C)O [Claritromycin, clarithromycin, reference compound] | – | – | – | – | – | – | 64 µg/mL (≈ 85.6 µM) | 0.25 µg/mL (≈ 0.334 µM) | – | – | – | – | – | – | – | – | – | – | – | –
CNC(C)C1CCC(N)C(OC2C(N)CC(N)C(OC3OCC(C)(O)C(NC)C3O)C2O)O1 (centres unmarked) [Gentamicin, gentamicin, reference compound] | – | – | – | – | – | – | 0.25 µg/mL (≈ 0.523 µM) | 0.25 µg/mL (≈ 0.523 µM) | 1 µg/mL (≈ 2.09 µM) | – | 0.25 µg/mL (≈ 0.523 µM) | 1 µg/mL (≈ 2.09 µM) | – | – | – | – | – | – | – | –
